For assay [1], the target named is Cyclin-dependent kinase 1 (Homo sapiens, UniProt P06493). The experiment in a line: Inhibitory concentration against Cyclin dependent kinase 1.
Assay [2] is described as follows: Inhibitory concentration against Casein kinase 2.
For assay [3], the target named is Mitogen-activated protein kinase 3 (Homo sapiens, UniProt P27361). The experiment in a line: Inhibitory concentration against Extracellular signal-regulated kinase 1.
Assay [4] is described as follows: Inhibitory concentration against Platelet-derived growth factor receptor.
Assay [5] is described as follows: Inhibitory concentration against Mitogen-activated protein kinase p38. Also noted: species or system Homo sapiens.
In assay [6] the target is Cyclin-dependent kinase 4 (Homo sapiens, UniProt P11802). Put plainly: Inhibitory concentration against Cyclin dependent kinase 4.
Sequence of Cyclin-dependent kinase 4 (P11802 whole entry): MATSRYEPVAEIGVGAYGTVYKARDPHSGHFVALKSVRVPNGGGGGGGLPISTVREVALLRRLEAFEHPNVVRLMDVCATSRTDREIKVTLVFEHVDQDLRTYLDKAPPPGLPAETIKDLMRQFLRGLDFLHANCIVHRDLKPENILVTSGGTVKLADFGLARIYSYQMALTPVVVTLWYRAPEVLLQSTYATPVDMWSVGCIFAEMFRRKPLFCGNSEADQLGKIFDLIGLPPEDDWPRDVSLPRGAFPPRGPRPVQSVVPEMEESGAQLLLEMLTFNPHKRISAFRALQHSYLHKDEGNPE
Assay [7] in a line: Inhibitory concentration against Cyclin dependent kinase 2. Also noted: species or system Homo sapiens.

Consider 39 compounds from ChEMBL document CHEMBL1141920, “Substituted aminobenzimidazole pyrimidines as cyclin-dependent kinase inhibitors” (Bioorg Med Chem Lett, 2005).

Several values for one entry are separate records, joined by “and”; a condition that tells them apart may be missing. Equal entries are not always repeated.

For orientation: IC50 means the midpoint of a concentration-inhibition curve. Lower therefore signals inhibition by little substance.

Sequence of Cyclin-dependent kinase 1 (P06493 whole entry): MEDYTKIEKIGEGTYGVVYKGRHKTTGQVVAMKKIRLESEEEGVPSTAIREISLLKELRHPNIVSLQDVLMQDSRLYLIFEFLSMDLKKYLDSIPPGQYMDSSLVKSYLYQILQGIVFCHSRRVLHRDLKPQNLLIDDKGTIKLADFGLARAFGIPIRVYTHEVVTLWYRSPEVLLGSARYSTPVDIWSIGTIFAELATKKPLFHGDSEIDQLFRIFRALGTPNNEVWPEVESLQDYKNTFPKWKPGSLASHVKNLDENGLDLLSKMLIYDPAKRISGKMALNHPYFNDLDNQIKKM
Sequence of Mitogen-activated protein kinase 3 (P27361 whole entry): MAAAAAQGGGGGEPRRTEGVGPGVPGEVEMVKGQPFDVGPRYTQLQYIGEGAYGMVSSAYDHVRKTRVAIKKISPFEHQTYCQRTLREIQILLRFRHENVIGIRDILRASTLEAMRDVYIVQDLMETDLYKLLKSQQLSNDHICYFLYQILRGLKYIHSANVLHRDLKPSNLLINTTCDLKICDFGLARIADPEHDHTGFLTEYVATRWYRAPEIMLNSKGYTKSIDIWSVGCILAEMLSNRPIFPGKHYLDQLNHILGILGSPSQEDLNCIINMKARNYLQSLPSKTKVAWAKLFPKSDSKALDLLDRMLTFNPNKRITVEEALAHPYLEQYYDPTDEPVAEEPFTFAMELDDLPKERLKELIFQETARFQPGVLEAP

In assay [1], `CC(C)Oc1nc(Nc2ccc3nc[nH]c3c2)ncc1C(F)(F)F` had an IC50 of 0.025 µM. The same measure, in the same setting: for `FC(F)(F)c1ccc(Oc2nc(Nc3ccc4[nH]cnc4c3)ncc2C(F)(F)F)cc1` the value was over 1 µM; for `CC(C)COc1nc(Nc2ccc3[nH]cnc3c2)ncc1C(F)(F)F`, 0.002 µM; for `Clc1cccc(CNc2nc(Nc3ccc4[nH]cnc4c3)ncc2Br)c1Cl`, 0.126 µM. Still for that read-out and setting: the figure for `c1cc(Nc2ccc3[nH]cnc3c2)nc(Nc2ccc3[nH]cnc3c2)n1` is over 1 µM. On the same count and under the same terms, for `FC(F)(F)c1cnc(Nc2ccc3nc[nH]c3c2)nc1Nc1ccc(Cl)cc1` the value was 0.004 µM; for `FC(F)(F)c1cnc(Nc2ccc3[nH]cnc3c2)nc1Nc1ccc2[nH]cnc2c1`, 0.01 µM. Take `FC(F)(F)c1cnc(Nc2ccc3[nH]cnc3c2)nc1OC1CCCCC1`: the IC50 in assay [1] is 0.043 µM. Still for that read-out and setting: for `FC(F)(F)c1cnc(Nc2ccc3nc[nH]c3c2)nc1Nc1cccc(Cl)c1` the value was 0.003 µM. The same measure, in the same setting: the figure for `FC(F)(F)c1cnc(Nc2ccccc2Cl)nc1Nc1ccc2nc[nH]c2c1` is over 1 µM; for `FC(F)(F)c1cnc(Nc2ccc3nc[nH]c3c2)nc1Oc1ccc(Br)cc1` it is 0.562 µM. `Fc1cnc(Nc2ccc3nc[nH]c3c2)nc1Nc1ccc2nc[nH]c2c1` had an IC50 in assay [1] of 0.43 µM. Same read-out and setting: for `Brc1cnc(Nc2ccc3nc[nH]c3c2)nc1Nc1ccc(Oc2cccnc2)cc1` the value was 0.034 µM; for `Cc1ccccc1Sc1nc(Nc2ccc3[nH]cnc3c2)ncc1C(F)(F)F`, 0.135 µM. The same measure, in the same setting: the figure for `CCOc1nc(Nc2ccc3nc[nH]c3c2)ncc1C(F)(F)F` is 0.077 µM; for `NS(=O)(=O)c1ccc(Nc2ncc(C(F)(F)F)c(Nc3ccc4nc[nH]c4c3)n2)cc1` it is 0.0001 µM. Take `FC(F)(F)c1cnc(Nc2ccc3[nH]cnc3c2)nc1Nc1ccccc1Cl`: the IC50 is 0.51 µM in assay [2], over 1 µM in assay [3], 0.29 µM in assay [4] and over 1 µM in assay [5]. The compound `c1cc(Nc2ccc3[nH]ccc3c2)nc(Nc2ccc3[nH]ccc3c2)n1` returned an IC50 in assay [1] of over 1 µM. On the same count and under the same terms, for `COc1cccc(Sc2nc(Nc3ccc4nc[nH]c4c3)ncc2C(F)(F)F)c1` the value was over 1 µM; for `Fc1ccc(Nc2nc(Nc3ccc4[nH]cnc4c3)ncc2Br)cc1`, 0.004 µM. The same measure, in the same setting: for `FC(F)(F)c1cnc(Nc2ccc3nc[nH]c3c2)nc1Oc1ccc(Cl)cc1` the value was 0.252 µM; for `CN(c1cccc(Cl)c1)c1ncc(C(F)(F)F)c(Nc2ccc3nc[nH]c3c2)n1`, over 1 µM. Same read-out and setting: for `Brc1cnc(Nc2ccc(Oc3cccnc3)cc2)nc1Nc1ccc2nc[nH]c2c1` the value was 0.248 µM; for `Brc1cnc(Nc2ccc3nc[nH]c3c2)nc1NC1CCCc2ccccc21` (centres undefined), 0.392 µM; for `FC(F)(F)c1ccc(Nc2ncc(C(F)(F)F)c(Nc3ccc4nc[nH]c4c3)n2)cc1`, 0.015 µM. Consider `FC(F)(F)c1cnc(Nc2ccc(Br)cc2)nc1Nc1ccc2[nH]cnc2c1`, for which the IC50 was 0.091 µM in assay [2]; 0.011 µM in assay [1]; 0.26 µM and 1.2 µM in assay [6]; 0.073 µM in assay [7]; 0.75 µM in assay [3]; 0.19 µM in assay [4]. In addition, the IC50 in assay [5] was over 1 µM.

With `Brc1cnc(Nc2ccc3[nH]ccc3c2)nc1Nc1ccc2[nH]ccc2c1`, the IC50 in assay [1] is over 1 µM. As for `Fc1cnc(Nc2ccc3[nH]ccc3c2)nc1Nc1ccc2[nH]ccc2c1`, the IC50 in assay [1] is over 1 µM.

Compound `Fc1ccc(Oc2nc(Nc3ccc4[nH]cnc4c3)ncc2C(F)(F)F)cc1` showed an IC50 in assay [1] of 0.032 µM. On the same count and under the same terms, for `Brc1cnc(Nc2ccc3[nH]cnc3c2)nc1NC1CCc2ccccc21` (centres undefined) the value was 0.034 µM. Still for that read-out and setting: the figure for `Cc1ccccc1Oc1nc(Nc2ccc3[nH]cnc3c2)ncc1C(F)(F)F` is 0.004 µM; for `FC(F)(F)c1cnc(Nc2ccc3[nH]ccc3c2)nc1Nc1ccc2[nH]ccc2c1` it is over 1 µM; for `Clc1cccc(Nc2ncc(Br)c(Nc3ccc4nc[nH]c4c3)n2)c1` it is 0.009 µM. Same read-out and setting: for `COc1cccc(Oc2nc(Nc3ccc4nc[nH]c4c3)ncc2C(F)(F)F)c1` the value was 0.16 µM. For the compound `COc1ccc(Nc2nc(Nc3ccc4[nH]cnc4c3)ncc2C(F)(F)F)cc1`, the IC50 is 0.011 µM in assay [2]; 0.008 µM in assay [1]; 0.057 µM and 0.23 µM in assay [6]; 0.031 µM in assay [7]; over 1 µM in assay [3]; 0.033 µM in assay [4]. This compound also came in with an IC50 in assay [5] of over 1 µM. As for `Brc1cnc(Nc2ccc3[nH]cnc3c2)nc1Nc1ccc2c(c1)OCO2`, the IC50 in assay [1] came to 0.009 µM. `Brc1cnc(Nc2ccc3nc[nH]c3c2)nc1Nc1ccc2nc[nH]c2c1` displayed an IC50 in assay [1] of 0.014 µM. `FC(F)(F)c1cnc(Nc2cccc(Cl)c2)nc1Nc1ccc2[nH]cnc2c1` returned a concentration for half-maximal inhibition (IC50) in assay [1] of 0.022 µM. Same read-out and setting: for `Cc1cccc(Nc2ncc(C(F)(F)F)c(Nc3ccc4nc[nH]c4c3)n2)c1` the value was 0.015 µM.
